Source: patent US20130129841A1, “THERAPEUTIC COMBINATION COMPRISING A PARP-1 INHIBITOR AND AN ANTI-NEOPLASTIC AGENT” (NERVIANO MEDICAL SCIENCES S.r.l., priority 2010, published 2013)
Like-named read-outs stand apart in the source and are kept apart here.

Assays:
[1] = system: KM-12 human colorectal cancer xenograft model pTEN mutated
Experimental: (§1) Balb, Nu/Nu male mice, from Harlan (Italy) or CD1 Nu/Nu female mice from CRI, were maintained in agreement with the European Communities Council Directive no. 86/609/EEC, in cages with paper filter cover, food and bedding sterilized and acidified water. Fragments of Capan-1 human pancreatic cancer tumors, MX-1 human breast cancer tumors and HCT-116 human colon carcinoma were implanted subcutaneously. KM-12 cells were grown in vitro and 3×106 in 0,2 ml were implanted subcutaneously. The treatment started when tumors were palpable.
(§2) Compounds of formula (I) were administered by oral route in a volume of 10 ml/kg at the indicated doses from day 1 to 12. Temozolomide was administered orally at the dose of 62.5 mg/kg for 5 days. When combined, compound of formula (I) was administered from day 1 to 12 and temozolomide from day 3 to day 7. Irinotecan was administered intravenous at the dose of 45 mg/kg 2 or 3 times every 4 days. When combined, compound of formula (I) was administered from day 1 to 8 or to 12 and irinotecan on day 3 and day 7 or and days 1, 5 and 9. Docetaxel was administered intravenously at the dose of 5 mg/kg once a week for three times. When combined, compound of formula (I) was administered from day 1 to 12 and docetaxel on days 1, 8 and 15.
(§3) Tumor growth and body weight were measured every 3 days. Tumor growth was assessed by caliper. The two diameters were recorded and the tumor weight was calculated according the following formula: length (mm)×width^2 /2. The effect of the antitumor treatment was evaluated as the delay in the onset of an exponential growth of the tumor (see for references Anticancer drugs 7:437-60, 1996). This delay (T-C value) was defined as the difference of time (in days) required for the treatment group (T) and the control group (C) tumors to reach a predetermined size (1 g). Toxicity was evaluated on the basis of number of death animals during the experiment.

[2] = system: HCT-116 human colorectal cancer xenograft model
Experimental: as §1, §2, §3

[3] = system: MX-1 human breast cancer xenograft model BRCA-1 mutated; conditions: MX-1 xenograft; for Toxicity: number of death animals
Experimental: as §1, §2, §3

[4] = system: Capan-1 BRCA-2 mutated human pancreatic xenograft model; conditions: for Toxicity: number of death animals
Experimental: as §1, §2, §3

[5] = system: A-375 human melanoma cell line; test: In vitro combination cytotoxic activity, cell proliferation (CellTiterGlo), 6 days; assay type: cell-based; conditions: single agent
Experimental: Materials and methods. […] Drugs were added to the experimental culture, and incubations were carried out at 37° C. for 6 days in the dark. Serial dilution curves were prepared in medium by using a liquid handler Multiprobe II (PerkinElmer). Scalar doses of the compound of formula (I) and antineoplastic agents were added to the medium 24 hours after seeding. Drug solutions were prepared immediately before use. At the end of treatment, cell proliferation was determined by an intracellular adenosine triphosphate monitoring system (CellTiterGlo- Promega) using an Envision (PerkinElmer) reader. Inhibitory activity was evaluated comparing treated versus control data using the Assay Explorer (MDL) program. The dose inhibiting 50% of cell growth was calculated using sigmoidal interpolation curve.

[6] = system: ovarian cancer patients with confirmed BRCA-1 mutations; conditions: phase I, monotherapy, oral, preliminary data; cited from earlier work
[7] = system: KM-12 human colon cancer cell line; test: In vitro combination cytotoxic activity, cell proliferation (CellTiterGlo), 6 days; assay type: cell-based
Experimental: (§4) Materials and methods. Exponentially growing human cancer cell line (MDA-MB-436, MDA-MB-468, A-375, HCT-116, KM-12) was seeded and incubated at 37° C. in a humidified 5% CO2 atmosphere. Drugs were added to the experimental culture, and incubations were carried out at 37° C. for 6 days in the dark. Serial dilution curves were prepared in medium by using a liquid handler Multiprobe II (PerkinElmer). Scalar doses of the compound of formula (I) and antineoplastic agents were added to the medium 24 hours after seeding. Drug solutions were prepared immediately before use. At the end of treatment, cell proliferation was determined by an intracellular adenosine triphosphate monitoring system (CellTiterGlo- Promega) using an Envision (PerkinElmer) reader. Inhibitory activity was evaluated comparing treated versus control data using the Assay Explorer (MDL) program. The dose inhibiting 50% of cell growth was calculated using sigmoidal interpolation curve.

[8] = system: HCT-116 human colon cancer cell line; test: as above; assay type: cell-based; conditions: single agent
Experimental: as §4

[9] = docetaxel 5 mg/kg intravenous, days 1, 8 and 15
[10] = Capan-1, Table 8, temozolomide 62.5 mg/kg oral, days 3 to 7
[11] = Capan-1, Table 9, temozolomide 62.5 mg/kg oral, days 3 to 7
[12] = Capan-1, Table 8, Compound 1 100 mg/kg oral, days 1 to 12
[13] = Capan-1, Table 9, Compound 2 50 mg/kg oral, days 1 to 12
[14] = Compound 2 100 mg/kg oral, days 1 to 8 (footnote *)

## CCc1c2c(nc3ccc(OC(=O)N4CCC(N5CCCCC5)CC4)cc13)-c1cc3c(c(=O)n1C2)COC(=O)[C@]3(O)CC [Irinotecan, irinotecan, reference compound]
[1]; KM-12 xenograft, irinotecan 45 mg/kg intravenous, days 3 and 7
  T-C: 1 days
[1]; KM-12 xenograft, irinotecan 45 mg/kg intravenous, days 3 and 7, number of death animals
  Toxicity: 0/7
[2]; HCT-116 xenograft, irinotecan 45 mg/kg intravenous, days 1, 5 and 9
  T-C: 16 days
[2]; HCT-116 xenograft, irinotecan 45 mg/kg intravenous, days 1, 5 and 9, number of death animals
  Toxicity: 0/7

## CC(=O)O[C@@]12CO[C@@H]1C[C@H](O)[C@@]1(C)C(=O)[C@H](O)C3=C(C)[C@@H](OC(=O)[C@H](O)[C@@H](NC(=O)OC(C)(C)C)c4ccccc4)C[C@@](O)([C@@H](OC(=O)c4ccccc4)[C@H]21)C3(C)C [Docetaxel, docetaxel, reference compound]
[3]; [9]
  T-C: 3 days
  Toxicity: 0/7

## Cn1nnc2c(C(N)=O)ncn2c1=O [Temozolomide, temozolomide, reference compound]
[4]; [10]
  T-C: 5 days
  Toxicity: 0/7
[4]; [11]
  T-C: 9 days
  Toxicity: 0/7
[5]
  IC50: 932 µM

## NC(=O)c1cccc2c1C(=O)N(C1CCN(C3CCC(F)(F)CC3)CC1)C2 [Compound 1, 2-[1-(4,4-difluorocyclohexyl)piperidin-4-yl]-3-oxo-2,3-dihydro-1H-isoindole-4-carboxamide]
[4]; [12]
  T-C: 5 days
  Toxicity: 0/7

## O=C(c1cc(Cc2n[nH]c(=O)c3ccccc23)ccc1F)N1CCN(C(=O)C2CC2)CC1 [AZD2281]
[6]
  partial responses: 4 out of 10

## NC(=O)c1cc(F)cc2c1C(=O)N(C1CCN(C3CCC(F)(F)CC3)CC1)C2 [Compound 2, 2-[1-(4,4-difluorocyclohexyl)piperidin-4-yl]-6-fluoro-3-oxo-2,3-dihydro-1H-isoindole-4-carboxamide]
[4]; [13]
  T-C: 6 days
  Toxicity: 0/7
[1]; KM-12 xenograft, Compound 2 50 mg/kg oral, days 1 to 12
  T-C: 1 days
[1]; mouse, in vivo, po, 50 mg/kg
  Toxicity: 0/7
[2]; HCT-116 xenograft, Compound 2 50 mg/kg oral, days 1 to 8
  T-C: 1 days
[2]; HCT-116 xenograft, Compound 2 100 mg/kg oral, days 1 to 8
  T-C: 4 days
[2]; mouse, in vivo, po, 50 mg/kg
  Toxicity: 0/7
[2]; mouse, in vivo, po, 100 mg/kg
  Toxicity: 0/7
[3]; [14]
  T-C: 2 days
  Toxicity: 0/7
[5]
  IC50: 32.5 µM
[7]; Homo sapiens, KM12, single agent
  IC50: 19.4 µM
[8]; Homo sapiens
  IC50: 14.1 µM

## CCc1c2c(nc3ccc(O)cc13)-c1cc3c(c(=O)n1C2)COC(=O)[C@]3(O)CC [SN-38, reference compound]
[7]; single agent
  IC50: 0.0015 µM
[8]
  IC50: 0.0011 µM
